Source: PubChem BioAssay (NCI)
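1) Cells in 96-well plates. 2) Compound, 48 h, 5 concentrations. 3) Linear interpolation between surrounding doses. 4) Unreached endpoint = highest concentration. At the GI50, growth is halved. Definition used: TGI = concentration required for complete inhibition of growth.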

system: A498 renal; assay: NCI tumour cell line growth inhibition, 48 h

| Structure (SMILES) | GI50 | TGI |
| --- | --- | --- |
| C=CCC1(O)c2ccccc2C(=O)c2c(NCCN(CC(=O)OCC)CC(=O)OCC)cccc21 (stereo not given) | > 100 µM | > 100 µM |
| COc1cccc(-n2nc(C)c3c(N/N=C(\C)c4ccncc4)ncnc32)c1 | 4.76 µM | > 25 µM |
| Cc1ccc(-c2nc(C#N)c(S(=O)(=O)n3nc(C)cc3N)o2)cc1 | 16.3 µM | 32.9 µM |
| CCn1cnc(C[C@H](NC(=O)[C@@H](NC(=O)Nc2cc(C(F)(F)F)cc(C(F)(F)F)c2)C(C)C)C(=O)OC)c1 | > 10 µM | > 10 µM |
| O=C(Nc1cccc(-n2cc(-c3ccncc3)c(-c3ccc(Cl)c(O)c3)n2)c1)c1ccc(N2CCOCC2)c(C(F)(F)F)c1 | 15.5 µM | > 50 µM |
| O=C(Nc1ccncc1)C(=O)c1cn(Cc2ccc(Cl)cc2)c2ccccc12 | 0.544 µM | > 100 µM |
| CC(=O)C(=Cc1ccc(C=C(C(C)=O)C(C)=O)cc1)C(C)=O | – | 9.03 µM |
| COC(=O)c1ccccc1OCc1cc(=O)oc2ccc(C)cc12 | – | > 100 µM |
| COc1ccc(-c2nc(-c3ccccc3)c(-c3ccccc3)[nH]2)cc1OC1CCCC1 | > 100 µM | > 100 µM |
| O=C(O)c1cc2ccc3ccccc3c2oc1=O | – | > 100 µM |
| O=[N+]([O-])c1ccc2c(c1)Cc1cc(N=Cc3ccc4c(c3)OCO4)ccc1-2 | – | > 100 µM |
| COC(=O)[C@@]12OC[C@]34[C@H]([C@@H](O)[C@@H]1O)[C@@]1(C)[C@H](O)C(=O)C=C(C)[C@@H]1C[C@H]3OC(=O)C(OC(C)=O)[C@@H]24 (stereo not given in full) | 0.0146 µM | 0.0413 µM |

system: A549 NSCLC; assay: NCI tumour cell line growth inhibition, 48 h

| Structure (SMILES) | GI50 | TGI |
| --- | --- | --- |
| C=CCC1(O)c2ccccc2C(=O)c2c(NCCN(CC(=O)OCC)CC(=O)OCC)cccc21 (stereo not given) | > 100 µM | > 100 µM |
| COc1cccc(-n2nc(C)c3c(N/N=C(\C)c4ccncc4)ncnc32)c1 | > 25 µM | > 25 µM |
| Cc1ccc(-c2nc(C#N)c(S(=O)(=O)n3nc(C)cc3N)o2)cc1 | 19.6 µM | 39.8 µM |
| CCn1cnc(C[C@H](NC(=O)[C@@H](NC(=O)Nc2cc(C(F)(F)F)cc(C(F)(F)F)c2)C(C)C)C(=O)OC)c1 | 3.19 µM | > 10 µM |
| O=C(Nc1cccc(-n2cc(-c3ccncc3)c(-c3ccc(Cl)c(O)c3)n2)c1)c1ccc(N2CCOCC2)c(C(F)(F)F)c1 | 3.08 µM | > 50 µM |
| O=C(Nc1ccncc1)C(=O)c1cn(Cc2ccc(Cl)cc2)c2ccccc12 | 0.399 µM | > 100 µM |
| CC(=O)C(=Cc1ccc(C=C(C(C)=O)C(C)=O)cc1)C(C)=O | – | 25.2 µM |
| COC(=O)c1ccccc1OCc1cc(=O)oc2ccc(C)cc12 | – | > 100 µM |
| COc1ccc(-c2nc(-c3ccccc3)c(-c3ccccc3)[nH]2)cc1OC1CCCC1 | > 100 µM | > 100 µM |
| O=C(O)c1cc2ccc3ccccc3c2oc1=O | – | > 100 µM |
| O=[N+]([O-])c1ccc2c(c1)Cc1cc(N=Cc3ccc4c(c3)OCO4)ccc1-2 | – | > 100 µM |
| COC(=O)[C@@]12OC[C@]34[C@H]([C@@H](O)[C@@H]1O)[C@@]1(C)[C@H](O)C(=O)C=C(C)[C@@H]1C[C@H]3OC(=O)C(OC(C)=O)[C@@H]24 (stereo not given in full) | 0.0381 µM | 0.294 µM |

system: HCT-15 colon; assay: NCI tumour cell line growth inhibition, 48 h

| Structure (SMILES) | GI50 | TGI |
| --- | --- | --- |
| C=CCC1(O)c2ccccc2C(=O)c2c(NCCN(CC(=O)OCC)CC(=O)OCC)cccc21 (stereo not given) | 69.5 µM | > 100 µM |
| COc1cccc(-n2nc(C)c3c(N/N=C(\C)c4ccncc4)ncnc32)c1 | > 25 µM | > 25 µM |
| Cc1ccc(-c2nc(C#N)c(S(=O)(=O)n3nc(C)cc3N)o2)cc1 | 1.9 µM | 3.72 µM |
| CCn1cnc(C[C@H](NC(=O)[C@@H](NC(=O)Nc2cc(C(F)(F)F)cc(C(F)(F)F)c2)C(C)C)C(=O)OC)c1 | > 10 µM | > 10 µM |
| O=C(Nc1cccc(-n2cc(-c3ccncc3)c(-c3ccc(Cl)c(O)c3)n2)c1)c1ccc(N2CCOCC2)c(C(F)(F)F)c1 | 1.81 µM | 25.3 µM |
